One data set concerns medulloblastoma cells. As to the kind of experiment: tritiated thymidine incorporation assay in medulloblastoma cells. In kind it is cell-based, mouse. The following applies: typical assay. As for the experimental part:
In order to test the effects of cAMP agonists on the proliferation of Hh-pathway tumor cells, primary medulloblastoma cell cultures were similarly treated with forskolin or control vehicle. From 2-3 DIV, bromodeoxyuridine (BrdU) was then added to the cultures, to label proliferating cells. On 3 DIV, cells were fixed with paraformaldehyde. Cells were then immunostained with an antibody to BrdU to identify cells that had been proliferating, and counterstained with bisbenzimide to determine total cell number. The number of total and BrdU(+) cells were then scored in multiple fields in wells of each condition, to determine the percent proliferating cells under different treatments. The scorer was blinded as to the treatments of the cells. […] Similar results were obtained when proliferation was measured using a tritiated thymidine incorporation assay, and other cAMP agents were also found to be effective.
For orientation: Incorporation of labelled thymidine or its analogues reports DNA synthesis.

The subject of data set [1] is medulloblastoma cells from ptc-1 knockout mice. Put plainly: growth of subcutaneous-transplanted medulloblastoma tumors in nude mice. In kind it is in vivo, mouse. An excerpt:
(§1) To determine whether Hh signaling inhibitors can inhibit tumor growth in vivo, medulloblastoma cells from ptc-1 knockout mice were transplanted subcutaneously into athymic (“nude”) mice. After allowing time for the tumor cells to grow at the injection site, the transplanted mice were divided into groups, and treated with either control vehicle, or cAMP agonist drugs. In one set of experiments, tumors were infused with either H-forskolin, or water as a control. After several days of drug infusion, the mice were sacrificed, and the tumors were sectioned for histology. The transplanted medulloblastoma cells from the ptc knockout mice contain a lacZ transgene (encoding β-galactosidase), the expression of which is induced by Hh signaling. Therefore, the level of β-galactosidase in these cells indicates their level of […] signaling. Thus, in order to determine how effectively the infused drug inhibited Hh signaling in the tumor, the tumor sections were stained for β-galactosidase activity using the substrate Xgal, which stains expressing cells blue.
In order to determine whether Hh pathway inhibitors can inhibit tumor growth in vivo, cAMP agonists were administered to mice that, as above, had subcutaneous medulloblastoma tumors. In one experiment, one group of mice received daily intraperitoneal injections of forskolin, while control mice received equivalent injections of vehicle (DMSO). The volumes of the tumors were regularly determined by measuring tumor dimensions with a caliper. In the mice treated with DMSO control, the tumors grew much more rapidly than in the mice treated with forskolin. […] In a similar experiment, H-forskolin or control vehicle was administered systemically to mice continuously, via an osmotic minipump that was implanted subcutaneously (and replaced regularly). Again in this experiment (FIG. 13), tumor size was smaller in the H-forskolin-treated mice than in the control mice.

The next data set concerns Hh signaling. Put plainly: Xgal staining of subcutaneous medulloblastoma tumors after drug infusion. In kind it is in vivo, mouse. The following applies: tumor infusion for several days, compared to control (water).
Description: as §1

Data set [2] concerns medulloblastoma tumor cells. In kind it is cell-based, mouse. As for the experimental part: These medulloblastoma cells were derived from tumors that arose in the brains of mice heterozygous for an inactivating mutation in the ptc gene (“heterozygous ptc knockout mice”). Mutation of ptc leads to inappropriate activation of the Hh signaling pathway, and in these ptc knockout mice, the ptc mutation results in the occurrence of medulloblastomas. The medulloblastoma tumor cells were placed into primary culture in neuronal culture medium (Basal Medium of Eagle, with 10% calf serum, 25 mM KCl, and 2 mM glutamine). Cells were typically seeded at 0.5 or 1.0×10^6 cells/well of a 24 well plate, in 0.5 ml of medium per well. […] From 2-3 DIV, bromodeoxyuridine (BrdU) was added to the cultures, to label proliferating cells. On 3 DIV, cells were fixed with paraformaldehyde. […] The numbers of total and BrdU(+) cells were then scored in multiple fields in wells of each condition, to determine the percent proliferating cells under different treatments. The scorer was blinded as to the treatments of the cells.
(§2) To determine the effects of cAMP agonist drugs on the Hedgehog (Hh) signaling pathway in tumor cells, medulloblastoma cells were grown in primary culture. These medulloblastoma brain tumors arose in mice heterozygous for an inactivating mutation in the ptc-1 gene (“heterozygous ptc knockout mice”). Mutation of ptc-1 leads to inappropriate activation of the Hh signaling pathway, and in these ptc-1 knockout mice, the ptc-1 mutation results in the occurrence of medulloblastoma. The medulloblastoma tumor cells were placed into primary culture in neuronal culture medium (Basal Medium of Eagle, with 10% serum, 25 mM KCl, and 2 mM glutamine). Cells were typically seeded at 0.5 or […] cells/well of a 24 well plate, in 0.5 ml of medium. One day after seeding (i.e., on 1 day in vitro, or DIV), cells were treated with forskolin (50 μM final), or an equal amount of vehicle (0.1% DMSO). On 3 DIV, RNA was isolated from the cells, and the expression of the Hh-response gene gli-1 was determined by RT-PCR analysis.
In order to test the effects of cAMP agonists on the proliferation of Hh-pathway tumor cells, primary medulloblastoma cell cultures were similarly treated with forskolin or control vehicle. From 2-3 DIV, bromodeoxyuridine (BrdU) was then added to the cultures, to label proliferating cells. On 3 DIV, cells were fixed with paraformaldehyde. […] The number of total and BrdU(+) cells were then scored in multiple fields in wells of each condition, to determine the percent proliferating cells under different treatments. The scorer was blinded as to the treatments of the cells.

The next data set has as its system gli-1. Put plainly: gli-1 expression by RT-PCR in primary medulloblastoma cells. It counts as cell-based, mouse. The following applies: 50 μM, RNA on 3 DIV. As to the method: as §2
The test system of another data set is hair development. As to the kind of experiment: injection of pregnant female mouse, hair development in the fetus. In kind it is in vivo. As for the experimental part: For these experiments, 20 μl of forskolin in DMSO (50 mM) was injected into a pregnant female mouse daily for E14.5 to E17.5 intraperitoneally. The mouse was sacrificed at E17.5 and the fetuses were removed for gross inspection. The skin from each fetus was processed for H&E staining.

A further data set deals with hair follicles. As to the kind of experiment: hydron pellet implantation into ptc-1 lacZ skin punches, 8 days of culture. It counts as cell-based, mouse. The note with it: implanted pellets, Shh supplied with the culture medium. As for the experimental part:
FIG. 19 depicts hydron pellet implantation into 3-day mouse ptc-1 lacZ skin punches after 8 days of culture. Ethanol, hydron polymer, and Shh or forskolin in PBS, respectively, were mixed according to the manufacturer's instructions, poured in 2 mm pellet casts and dried/UV-irradiated over night. Alternatively, 3 mg/ml of octylated Shh protein was added to the culture medium (on day 1, 3 and 5) for the medium control as well as the forskolin-pellet implant. 3-day-old skin was harvested from the backs of mouse pups transgenic for ptc-1 lacZ, as identified by lacZ reporter detection using tails, by standard procedures. 6 mm skin punches were taken using Miltex skin punches and incubated for 60 min. Pellets were inserted by carefully separating the dermal from the epidermal layer using forceps. Cultures were grown for 8 days, fixed in lacZ fixative according to standard protocols, rinsed and stained for lacZ over night at 37° C.
Results: (A) Untreated control, showing a small number of short hairs. […] Hair length and thickness of the dermis thickness are increased as well. Ptc-lacZ, a reporter gene indicative of Shh signaling is induced in follicular as well as basal cells (blue stain), although partially obscured by melanin. […] Note the highly localized area of follicle induction, corresponding to the area adjacent to bead insertion. […]

Data set [3] concerns hair follicle development. As to the kind of experiment: topical application on newborn Ptc-lacZ mice, skin histology. It counts as in vivo, mouse. The note with it: 5 mM in DMSO topical, twice a day, 7 days. As to the method: This effect may be due to the inhibition of the Hh pathway by forskolin, as the Hh pathway plays a critical role in hair follicle development (FIG. 14). Postnatal day 2 mouse pups were used for this experiment. For each pup, 5 μl of DMSO or forskolin in DMSO (5 mM) was applied on the center of the back using a micro-pipette tip. The same procedure is repeated twice, with a total of […] compound applied each time. The procedure was performed on the same animal twice a day for a period of 7 days. The pups were then sacrificed and the skin was taken from the applied area for histology analysis. H&E staining was performed on the paraffin embedded sections.

In data set [4] the test system is basal cell carcinoma tissue. Put plainly: subcutaneous injection near basal cell carcinoma, histology. In kind it is in vivo, mouse. The note with it: subcutaneous near the tumor, once a day, 21 days. As to the method: Experiments were conducted to determine the effect of cAMP elevating agents on basal cell carcinoma tissue. A solution of forskolin (50 mM) in ethanol was diluted 1:2 with cremophor (resulting in 50% ethanol/50% cremophor), then diluted 1:5 with PBS or normal saline (resulting in final 10% ethanol/10% cremophor/80% PBS or saline. The solution was administered by subcutaneous injection at different sites near the tumor (e.g., within a few millimeters of the margin), but not into the tumor itself. Treatment continued once a day every 24 hours for 21 days, 1 μl compound/g weight. After treatment, tumor size was measured, and the tumor was removed and analyzed by histology to determine morphological changes. Untreated BCC tissue is depicted in FIG. 16, and forskolin-treated tissue is depicted in FIGS. 17-18.

[5] abbreviates: 10 μM, BrdU 2-3 DIV, fixed 3 DIV, typical experiment.

Like-named read-outs stand apart in the source and are kept apart here.

For `C=CC1(C)CC(=O)C2(O)C(C)(O1)C(OC(=O)CCCN1CCN(C)CC1)C(O)C1C(C)(C)CCC(O)C12C` (centres unmarked) [H-forskolin, 7-deacetyl-7-[O-(N-methylpiperazino)-gamma-butyryl]-forskolin], the “inhibition of tritiated thymidine incorporation” value with medulloblastoma cells is recorded as 91%. Besides, the tumor size result in data set [1] (systemic, continuous via subcutaneous osmotic minipump, versus control mice) is “smaller”. Further, in the data set on Hh signaling, the “Xgal staining of tumors” value is “reduced Xgal staining”.

For the molecule `CC1=C2C[C@H]3[C@@H](CC=C4C[C@@H](O)CC[C@@]43C)[C@@H]2CC[C@]12O[C@@H]1C[C@H](C)CN[C@H]1[C@H]2C` [cyclopamine], the “inhibition of proliferation of the medulloblastoma cells” value in [2] (10 μM) is recorded as “strongly inhibit proliferation”.

As for `CC1=C2C(=O)[C@H]3[C@@H](CC=C4C[C@@H](O)CC[C@@]43C)[C@@H]2CC[C@]12O[C@@H]1C[C@H](C)CN[C@H]1[C@H]2C` [jervine], the “inhibition of proliferation of the medulloblastoma cells” value in data set [2] (10 μM) was “strongly inhibit proliferation”. For the same molecule, the “percent proliferation (BrdU(+) cells)” value in [2] (setting [5]) was 0.2%.

Regarding `C[C@H]1CC[C@]2(NC1)O[C@H]1C[C@H]3[C@@H]4CC[C@H]5C[C@@H](O)CC[C@]5(C)[C@H]4CC[C@]3(C)[C@H]1[C@@H]2C` [tomatidine], the “percent proliferation (BrdU(+) cells)” value in [2] (setting [5]) turned out to be 5.9%.

With forskolin, the gli-1 expression result with gli-1 is “strongly inhibit gli-1 expression”. For the same molecule, the “inhibition of tritiated thymidine incorporation” value in the data set with medulloblastoma cells was 93%. Besides, the “hair development in the fetus” value in the data set on hair development (20 μl of 50 mM in DMSO intraperitoneally daily E14.5 to E17.5) is reported as “severe disruption of hair development”. Moreover, the “number of hair follicles in fetal skin” value with hair development (20 μl of 50 mM in DMSO intraperitoneally daily E14.5 to E17.5, some fetuses) is on record as “great reduction of the number of hair follicles”. Besides, the “hair follicles, hair length, pigmentation and dermis thickness” value in the data set on hair follicles is “reduction of hair follicles, hair length, pigmentation and dermis thickness to levels comparable to the control”. For the same molecule, the “hair density and hair follicle structure” value in data set [3] was “decrease of hair density and abnormalities of hair follicle structure”. The BCC tissue histology result in data set [4] is “tumor shrinkage and/or cell death”. Besides, the “tumor regression in one treated mouse” value in [1] (daily intraperitoneal injections) was “regressed, disappeared, and has not reappeared in over 60 days”. Besides, the tumor growth result in [1] (daily intraperitoneal injections, versus DMSO) is listed as “did not grow excessively large”. Further, the “Xgal staining of tumors” value in the data set with Hh signaling is given as “lower Xgal staining”. In addition, in data set [2] (forskolin 50 μM), the “inhibition of proliferation of the medulloblastoma cells” value is “strongly inhibit proliferation”. This molecule also displayed an inhibition of proliferation in data set [2] (forskolin 50 μM versus DMSO control) of 95%. Besides, the “percent proliferation (BrdU(+) cells)” value in data set [2] (forskolin 50 μM, typical experiment (FIG. 5)) stood at 0.4%.

For the origin of these results see US6686388B2, “Regulators of the hedgehog pathway, compositions and uses related thereto” (priority 1999, dated 2004).
